Experimental data reported in ChEMBL document CHEMBL3885881, “DrugMatrix”.

Species: Rattus norvegicus
Format: toxicity, organism-based, Sprague-Dawley
Conditions: in vivo, po, 24 h, route oral GAVAGE, time 1 day, vehicle 100 % WATER; for ABSOLUTE BASOPHIL / ABSOLUTE EOSINOPHIL / ABSOLUTE LYMPHOCYTE / ABSOLUTE MONOCYTE / BASOPHIL / EOSINOPHIL / ERYTHROCYTE COUNT / HEMATOCRIT / HEMOGLOBIN / LEUKOCYTE COUNT / LYMPHOCYTE / MEAN CORPUSCULAR HEMOGLOBIN / MEAN CORPUSCULAR VOLUME / MONOCYTE / NEUTROPHIL / PLATELET COUNT: tissue Blood; for ALANINE AMINOTRANSFERASE / ALBUMIN / ALKALINE PHOSPHATASE / ASPARTATE AMINOTRANSFERASE / BLOOD UREA NITROGEN / CARBON DIOXIDE / CHLORIDE / CHOLESTEROL / CREATINE PHOSPHOKINASE / CREATININE / GLUCOSE / LACTATE DEHYDROGENASE / LIPASE / PHOSPHORUS / POTASSIUM / SODIUM / TOTAL BILIRUBIN / TOTAL PROTEIN / URIC ACID: tissue Plasma
[1] = 0 mg/kg, vehicle control, dose level Control

Description: DrugMatrix - Regimen: Single

SMILES: CCOC(=O)N1CCC(=C2c3ccc(Cl)cc3CCc3cccnc32)CC1 [LORATADINE]
- ABSOLUTE BASOPHIL [1]: 63.3 cells/µL
- ABSOLUTE EOSINOPHIL [1]: 66.7 cells/µL
- ABSOLUTE LYMPHOCYTE [1]: 8010 cells/µL
- ABSOLUTE MONOCYTE [1]: 240 cells/µL
- BASOPHIL [1]: 0.6%
- EOSINOPHIL [1]: 0.6%
- ERYTHROCYTE COUNT [1]: 6.25 x10E6/uL
- HEMATOCRIT [1]: 40.47%
- HEMOGLOBIN [1]: 12.83 G/DL
- LEUKOCYTE COUNT [1]: 10.19 x10E3/uL
- LYMPHOCYTE [1]: 78.7%
- MEAN CORPUSCULAR HEMOGLOBIN [1]: 20.53 pg
- MEAN CORPUSCULAR VOLUME [1]: 64.67 fL
- MONOCYTE [1]: 2.5%
- NEUTROPHIL [1]: 17.07%
- PLATELET COUNT [1]: 1297 x10E3/uL
- ALANINE AMINOTRANSFERASE [1]: 32.67 u/L
- ALBUMIN [1]: 3.9 G/DL
- ALKALINE PHOSPHATASE [1]: 374 u/L
- ASPARTATE AMINOTRANSFERASE [1]: 64.33 u/L
- BLOOD UREA NITROGEN [1]: 14 mg/dL
- CARBON DIOXIDE [1]: 45.67 mmol/L
- CHLORIDE [1]: 103 MEQ/L
- CHOLESTEROL [1]: 82.67 mg/dL
- CREATINE PHOSPHOKINASE [1]: 216.33 u/L
- CREATININE [1]: 0.17 mg/dL
- GLUCOSE [1]: 161.33 mg/dL
- LACTATE DEHYDROGENASE [1]: 103.67 u/L
- LIPASE [1]: 8.67 u/L
- PHOSPHORUS [1]: 11 mg/dL
- POTASSIUM [1]: 6.83 MEQ/L
- SODIUM [1]: 144.67 MEQ/L
- TOTAL BILIRUBIN [1]: 0.27 mg/dL
- TOTAL PROTEIN [1]: 6.27 G/DL
- URIC ACID [1]: 0.67 mg/dL
- ABSOLUTE BASOPHIL (2000 mg/kg, dose level High): 63.3 cells/µL
- ABSOLUTE EOSINOPHIL (2000 mg/kg, dose level High): 56.7 cells/µL
- ABSOLUTE LYMPHOCYTE (2000 mg/kg, dose level High): 5990 cells/µL
- ABSOLUTE MONOCYTE (2000 mg/kg, dose level High): 100 cells/µL
- BASOPHIL (2000 mg/kg, dose level High): 0.97%
- EOSINOPHIL (2000 mg/kg, dose level High): 0.77%
- ERYTHROCYTE COUNT (2000 mg/kg, dose level High): 7.26 x10E6/uL
- HEMATOCRIT (2000 mg/kg, dose level High): 47.47%
- HEMOGLOBIN (2000 mg/kg, dose level High): 14.97 G/DL
- LEUKOCYTE COUNT (2000 mg/kg, dose level High): 6.8 x10E3/uL
- LYMPHOCYTE (2000 mg/kg, dose level High): 87.87%
- MEAN CORPUSCULAR HEMOGLOBIN (2000 mg/kg, dose level High): 20.6 pg
- MEAN CORPUSCULAR VOLUME (2000 mg/kg, dose level High): 65.27 fL
- MONOCYTE (2000 mg/kg, dose level High): 1.5%
- NEUTROPHIL (2000 mg/kg, dose level High): 8.47%
- PLATELET COUNT (2000 mg/kg, dose level High): 1455 x10E3/uL
- ALANINE AMINOTRANSFERASE (2000 mg/kg, dose level High): 19.67 u/L
- ALBUMIN (2000 mg/kg, dose level High): 4.17 G/DL
- ALKALINE PHOSPHATASE (2000 mg/kg, dose level High): 348 u/L
- ASPARTATE AMINOTRANSFERASE (2000 mg/kg, dose level High): 59.33 u/L
- BLOOD UREA NITROGEN (2000 mg/kg, dose level High): 11.33 mg/dL
- CARBON DIOXIDE (2000 mg/kg, dose level High): 39.67 mmol/L
- CHLORIDE (2000 mg/kg, dose level High): 104 MEQ/L
- CHOLESTEROL (2000 mg/kg, dose level High): 66.33 mg/dL
- CREATINE PHOSPHOKINASE (2000 mg/kg, dose level High): 336 u/L
- CREATININE (2000 mg/kg, dose level High): 0.3 mg/dL
- GLUCOSE (2000 mg/kg, dose level High): 156 mg/dL
- LACTATE DEHYDROGENASE (2000 mg/kg, dose level High): 112.67 u/L
- LIPASE (2000 mg/kg, dose level High): 8.33 u/L
- PHOSPHORUS (2000 mg/kg, dose level High): 12.4 mg/dL
- POTASSIUM (2000 mg/kg, dose level High): 7.03 MEQ/L
- SODIUM (2000 mg/kg, dose level High): 145.67 MEQ/L
- TOTAL BILIRUBIN (2000 mg/kg, dose level High): 0.3 mg/dL
- TOTAL PROTEIN (2000 mg/kg, dose level High): 6.8 G/DL
- URIC ACID (2000 mg/kg, dose level High): 0.8 mg/dL
